Measurements published in patent publication US12527746B2, “Peptide/particle delivery systems” (The Johns Hopkins University, priority 2009, dated 2026).
Non-standard residues stand in square brackets, D forms with d. No end group written: not given here. Abu = CC[C@H](N)C(=O)O

Tests used:
rho/VEGF (V6) mouse = assay: rho/VEGF (V6) mouse, genetic model of wet age-related macular degeneration; assay type: in vivo, mice; settings: 8 weeks after injection
Source text: Referring now to FIG. 49 in shown the in vivo effects of microparticle formulations in both the CNV and rho/VEGF model over time. DEAH (SP6001)-336 PBAE nanoparticle formulation made as described previously (“DEAH” disclosed as SEQ ID NO: 2484). […] (Middle) and (Bottom) A genetic model of wet form of age-related macular degeneration in mice used to test long-term effect of microparticles. […] While PLGA is used to form the microparticles used above, other polymers may be used including the synthetic polyesters and polyamides described above. In certain embodiments, blends of these polymer are combined with PLGA to form microparticles with differing environmental sensitivity and release properties; (a) the effect of microparticle (SP-6001) in CNV model mouse; (b) the effect of microparticle (SP-6001) in rho/VEGF (V6) mouse, 1 week after injection; and (c) the effect of microparticle (SP-6001) in rho/VEGF (V6) mouse, 8 weeks after injection.

[1] = test system: MDA-MB-231 tumor xenograft; assay: MDA-MB-231 breast cancer xenograft, orthotopic, i.p. peptide; design: species or system SCID mice; settings: mouse, in vivo
Source text: BMC Cancer 2010; 10:29, and in a breast cancer xenograft model using MDA-MB-231 cells. Koskimaki J E, Karagiannis E D, Rosca E V, Vesuna F, Winnard P T, Jr., Raman V, et al. Peptides derived from type IV collagen, CXC chemokines, and thrombospondin-1 domain-containing proteins inhibit neovascularization and suppress tumor growth in MDA-MB-231 breast cancer xenografts. Neoplasia 2009; 11(12):1285-91.
Following orthotopic inoculation of SCID mice in the mammary fat pad area using 2×10^6 cells, tumors grew to approximately 100 mm^3 in 2 weeks; at that time 100 μL of peptide solution was injected i.p. once a day at peptide doses 10-20 mg/kg. PBS solution was injected as control. […] The microvessel density was determined by screening the immunohistologically stained CD31 sections. Inhibition of LEC migration in the ACEA migration assay also was determined (see FIG. 33B).

CNV laser mouse model = assay: CNV laser mouse model, intravitreous injection, choroidal flat mounts; assay type: in vivo, C57 BL/6 female mice; settings: day 14
Source text: Referring now to FIG. 9 is shown in vivo 336 polymer nanoparticle/SP6001 DEAH peptide (“DEAH” disclosed as SEQ ID NO: 2484); Peptide-336 polymer nanoparticles were formulated as previously described and intravitreously injected to test in vivo efficacy. ACNV laser mouse model was used on C57 BL/6 female mice. The mice receive laser eye treatments on day zero, followed by the intravitreous injections. Mice are then perfused with fluorescein labeled dextran on day 14 and choroidal flat mounts (bottom) were analyzed via fluorescence microscopy.
Referring now to FIG. 49 in shown the in vivo effects of microparticle formulations in both the CNV and rho/VEGF model over time. DEAH (SP6001)-336 PBAE nanoparticle formulation made as described previously (“DEAH” disclosed as SEQ ID NO: 2484). […] (Middle) and (Bottom) A genetic model of wet form of age-related macular degeneration in mice used to test long-term effect of microparticles. […] While PLGA is used to form the microparticles used above, other polymers may be used including the synthetic polyesters and polyamides described above. […]

endothelial cells [2] = assay: Anti-proliferative and anti-migratory activity of free peptides on endothelial cells; assay type: cell-based
Source text: Several classes of peptides have been developed that show either anti-proliferative or anti-migratory activity or both on endothelial cells. These peptides appear to function through distinct mechanisms of action and have been tested both in vitro and in vivo in tumor xenografts and in ocular mouse models.
(§1) It is believed that this peptide is the first antilymphangiogenic peptide agent.

[3] = test system: lymphatic endothelial cells; assay: Anti-proliferative and anti-migratory activity of free peptides on lymphatic endothelial cells; assay type: cell-based
Source text: as §1

endothelial cells [4] = assay: Endothelial cell proliferation, peptides encapsulated in polymeric particles vs free peptides; assay type: cell-based; settings: encapsulated within polymeric particles compared to unencapsulated
Source text: Changes to polymer structure, including small changes to the ends of the polymer only, can vary biophysical properties of these particles. These properties can be important to tune for effective in vivo peptide delivery. A small subset of the potential polymer library was screened to measure the effect of encapsulating the antiangiogenic peptides chemokinostatin-1 and pentastatin-1 within polymeric particles compared to unencapsulated, free peptides. […] An example of representative polymers encapsulating peptides is provided in Scheme 5.

Substance | anti-proliferative and anti-migratory activity (endothelial cells [2]) | inhibition of endothelial cell proliferation (endothelial cells [4]) | other results
EIELVEEEPPF [SP6001, 11-mer anti-angiogenic peptide derived from the serpin domain of DEAH box polypeptide] |  |  | inhibition of angiogenesis (rho/VEGF (V6) mouse): no longer inhibits angiogenesis; tumor xenograft growth [1]: significant inhibition; angiogenesis in the eye (CNV laser mouse model): significantly reduced angiogenesis
LLRISLLLIESWLE [SP5033] | anti-proliferative and anti-migratory activity |  | anti-proliferative and anti-migratory activity [3]: anti-proliferative and anti-migratory activity
LRRFSTMPFMF-Abu-NINNV-Abu-NF (LRRFSTMPFMF[Abu]NINNV[Abu]NF; listed as Homo sapiens) [SP2012] | highly potent anti-proliferative and anti-migratory |  | 
LRRFSTMPFMFCNINNVCNF [Pentastatin] |  | enhanced the ability of the peptides to inhibit the proliferation of endothelial cells | 
NGRKACLNPASPIVKKIIEKMLNS [Chemokinostatin] |  | enhanced the ability of the peptides to inhibit the proliferation of endothelial cells | 
